PMC4109918, “Design, Synthesis and Pharmacological Evaluation of Novel Vanadium-Containing Complexes as Antidiabetic Agents” (PLoS ONE, 2014)
Where two headings read alike, the source gives them in different places.

How the values were obtained:
[1] = set-up: method as in PMID 12888267; conditions: cited from earlier work
[2] = system: FFAs; conditions: hypoglycemic activity, File S1, cited from earlier work
[3] = system: adrenaline hyperglycemia in mongrel white mice; test: In vivo hypoglycemic activity in the adrenaline hyperglycemia model; conditions: oral, 1/10 of the LD50, 1 hour prior to epinephrine hydrochloride 1 mg/kg s.c.
Method: Determination of hypoglycemic activity of 5 complexes was performed on 75 mice. Adrenaline hyperglycemia was caused by subcutaneous administration of 0.1% epinephrine hydrochloride (AGH) at a dose of 1 mg/kg. […] In each experimental group there were 3 animals and 3 replicates were performed. The content of glucose in whole blood was determined at 0.5, 1 and 2 hours after administration of AGH or glucose using portable glucose monitoring systems, OneTouch Ultra test strip and OneTouch Ultra and Clever check TD4209 and strips Clever check TD4209.

[4] = system: free fatty acids released in adipocytes; test: Insulin-mimetic action: inhibition of free fatty acid release from epinephrine-stimulated adipocytes; format: cell-based; conditions: rat adipocytes, 30 min with compound at 37°C, then 3 hours with epinephrine; 50% inhibition of FFA release; read-out: IC50 exp (±S.D.) (FFAs)
Method: All rats (250–300 g) and mice (22–25 g) were housed in a temperature controlled room (24°C±1°C) and they had received standard food pellets and tap water […]. At the end of the study (24 h after CIN induction), all animal test subjects were euthanized by inhalation of ether anesthesia. Rat adipocytes were prepared from the fat pads of male Wistar rats by collagenase digestion according to the method of Rodbell. Freshly prepared adipocytes were incubated (37°C, 30 min) with solutions of the vanadium compounds at three concentrations (0.1, 0.5 and 1 mM in isotonic saline and 5 mM glucose), followed by 3 hours of incubation with epinephrine. The inhibitory effect was determined in terms of the decrease of the amount free fatty acids released in adipocytes. All assays were performed in duplicate or triplicate. […] Investigations were carried out on mongrel white mice.

[5] = system: rat; test: Acute toxicity study, rapid method of Prozorovskii (LD50); format: in vivo; set-up: LD50exp: unit not given here; conditions: for LD50exp: range in brackets; for Class in AD (experimental toxicity class): rat, in vivo
Method: Acute toxicity studies were carried out by rapid method of Prozorovskii. […] The following criteria were used for the evaluation of acute toxicity: the number of dead animals, the timing of their death, LD50 through the night, the picture of intoxication, behavioral change and autopsy results of the survived animals after 14 days. Clinical examination was performed for each animal during the first hour after administration of the substance, and weekly thereafter. Clinical examination included a detailed inspection of the animal in cage, in hands and in the open area. The manifestation and severity of intoxication were noted. Examination of animals in order to identify mortality or signs of variations in health status was conducted on a daily basis. Integrated indicators were assessed weekly during the entire period of observation. Death of animals was recorded daily during entire study period. General condition and behavior of animals as well as type of toxic manifestations, including their development and termination were recorded daily during the procedures for monitoring and inspection of individual animals.

Molecule: Cc1occc(=O)c1[O-].Cc1occc(=O)c1[O-].[O]=[V+2] [BMOV, bis(maltolato)oxovanadium(IV)]
- LD50 [1]: 220 mg/kg
- IC50 ([2]; ref 5 (Sakurai et al. 2010)): 676 µM

Molecule: O.O.O.O.O.O.O.O.[Na+].[O]=[V-]12([O][O]1)[O][O]2.c1ccc(-c2ccccn2)nc1 [Complex I, Sodium(2,2′-Bipyridyl) oxo-diperoxovanadate(V) octahydrate]
- decreasing blood glucose level [3]: 50%
- IC50 [4]: 720 ± 90 µM
- LD50exp [5]: 108(95–122)
- Class in AD (experimental toxicity class) [5]: 3

Molecule: CC(=O)/C=C(/C)[O-].CC(=O)/C=C(/C)[O-].[O]=[V+2] [Complex II, Bis(acetylacetonato)oxo-vanadium(IV)]
- IC50 [4]: 950 ± 90 µM

Molecule: CC(C)(C)OC(=O)[N-]C(=N)N.CC(C)(C)OC(=O)[N-]C(=N)N.[O]=[V+2] [Complex III, Bis{tert-butyl[amino(imino)methyl]carbamato} oxovanadium (IV)]
- decreasing blood glucose level [3]: 42%
- IC50 [4]: 540 ± 70 µM
- LD50exp [5]: 190(170–210)
- Class in AD (experimental toxicity class) [5]: 3

Molecule: O=C([O-])C([O-])C([O-])C(=O)[O-].O=C([O-])C([O-])C([O-])C(=O)[O-].[K+].[K+].[K+].[K+].[O]=[V+2].[O]=[V+2] (stereo not drawn) [Complex IV, Potassium bis((m2-d,d-tartrato-O,O′,O′′,O′′′)-oxo-vanadium(IV)) dihydrate]
- IC50 [4]: 950 ± 100 µM

Molecule: O=C1[O][V+4]2(=[O])([O]C(=O)c3c(O)ccc[n+]32)[n+]2cccc(O)c21 [VO(3hpa)2]
- IC50 ([2]; ref 1 (Sakurai, Yasui 2003)): 470 µM

Molecule: Cc1ccc[n+]2c1C(=O)[O][V+4]21(=[O])[O]C(=O)c2c(C)ccc[n+]21 [VO(3mpa)2]
- IC50 ([2]; ref 3 (Sakurai et al. 2000)): 660 µM

Molecule: O=C1[O][V+4]2(=[O])([O]C(=O)c3cc(Cl)cc[n+]32)[n+]2ccc(Cl)cc21 [VO(4clpa)2]
- IC50 ([2]; ref 3 (Sakurai et al. 2000)): 700 µM

Molecule: O=C1[O][V+4]2(=[O])([O]C(=O)c3ccc(I)c[n+]32)[n+]2cc(I)ccc21 [VO(5ipa)2]
- IC50 ([2]; ref 3 (Sakurai et al. 2000)): 450 µM

Molecule: CCc1cccc2[n+]1[V+4]1(=[O])([O]C2=O)[O]C(=O)c2cccc(CC)[n+]21 [VO(6epa)2]
- IC50 ([2]; ref 4 (Sasagawa et al. 2002)): 810 µM

Molecule: O=C1[O][V+4]2(=[O])([O]C(=O)c3cccc(O)[n+]32)[n+]2c(O)cccc21 [VO(6hpa)2]
- IC50 ([2]; ref 1 (Sakurai, Yasui 2003)): 800 µM

Molecule: Cc1cccc2[n+]1[V+4]1(=[O])([O]C2=O)[O]C(=O)c2cccc(C)[n+]21 [VO(6mpa)2]
- IC50 ([2]; ref 3 (Sakurai et al. 2000)): 490 µM

Molecule: CCCCCC1=C2[O][V+4]3(=[O])([O]C4=C(CCCCC)OC(C)=C(OC)C4=[O+]3)[O+]=C2C(OC)=C(C)O1 [VO(alx)2]
- IC50 ([2]; ref 5 (Sakurai et al. 2010)): 553 µM

Molecule: [O]=[V+4]12([O][n+]3ccccc3[S]1)[O][n+]1ccccc1[S]2 [VO(opt)2]
- IC50 ([2]; ref 6 (Sakurai et al. 1999)): 190 µM

Molecule: O=C1[O][V+4]2(=[O])([O]C(=O)c3cccc[n+]32)[n+]2ccccc21 [VO(pic)2]
- IC50 ([2]; ref 3 (Sakurai et al. 2000)): 590 µM

Molecule: O=S(=O)([O-])[O-].[O]=[V+2] [VOSO4, Vanadyl sulfate]
- IC50 ([2]; ref 1 (Sakurai, Yasui 2003)): 840 µM
- decreasing blood glucose level [3]: 16%
- IC50 [4]: 1000 ± 90 µM
- LD50exp [5]: 448(356–540)
- Class in AD (experimental toxicity class) [5]: 3

Molecule: Cc1cccc2[n+]1[Zn+2]1([O]C2=O)[O]C(=O)c2cccc(C)[n+]21 [Zn(6mpa)2]
- IC50 ([2]; ref 7 (Yoshikawa et al. 2002)): 310 µM

Molecule: O=C[C@@H]1CC(=O)[NH][Zn@@+2]2([NH]C(=O)C[C@H](C=O)[NH]2)[NH]1 [Zn(L-Asn)2]
- IC50 ([2]; ref 8 (Yoshikawa et al. 2001)): 650 µM

Molecule: O=C[C@H]1CCC[N]1[Zn+2][N]1CCC[C@@H]1C=O [Zn(L-Pro)2]
- IC50 ([2]; ref 8 (Yoshikawa et al. 2001)): 890 µM

Molecule: C[C@@H](O)[C@H]1[NH][Zn+2]2([NH][C@H]([C@@H](C)O)C(=O)[O]2)[O]C1=O [Zn(L-Thr)2]
- IC50 ([2]; ref 8 (Yoshikawa et al. 2001)): 540 µM

Molecule: CC(C)[C@H](C=O)[NH][Zn+2][NH][C@H](C=O)C(C)C [Zn(L-Val)2]
- IC50 ([2]; ref 8 (Yoshikawa et al. 2001)): 770 µM

Molecule: Cc1occc(=O)c1[O][Zn+2][O]c1c(C)occc1=O [Zn(maltolat)2]
- IC50 ([2]; ref 7 (Yoshikawa et al. 2002)): 590 µM

Molecule: O=C1[O][Zn+2]2([O]C(=O)c3cccc[n+]32)[n+]2ccccc21 [Zn(pic)2]
- IC50 ([2]; ref 7 (Yoshikawa et al. 2002)): 640 µM

Molecule: O=S1(=O)[O][Zn+2][O]1 [ZnSO4]
- IC50 ([2]; ref 8 (Yoshikawa et al. 2001)): 810 µM

Molecule: O=S(=O)(O)[O][V+4]123(=[O])[O]c4ccccc4C[N+]1(Cc1cccc[n+]12)Cc1cccc[n+]13 (stereo not drawn) [[VIVO(bp-O)HSO4]]
- IC50 ([2]; ref 9 (Nilsson et al. 2009)): 3850 µM

Molecule: COC(=O)[C@@H](Cc1c[nH]c2ccccc12)NC(=O)c1ccc2[n+](c1)[V+4]1(=[O])([O]C2=O)[O]C(=O)c2ccc(C(=O)N[C@H](Cc3c[nH]c4ccccc34)C(=O)OC)c[n+]21 [[VIVO(pic-trpMe)2]]
- IC50 ([2]; ref 9 (Nilsson et al. 2009)): 410 µM

Molecule: O=S(=O)([O-])[O-].[O]=[V+2].c1ccc(CN(Cc2ccccn2)Cc2ccccn2)nc1 [[VIVO(tpa)SO4]]
- IC50 ([2]; ref 9 (Nilsson et al. 2009)): 4600 µM

Molecule: O=C(N[C@H](Cc1c[nH]c2ccccc12)C(=O)O)c1ccc2[n+](c1)[V+4]1(=[O])([O]C2=O)[n+]2ccccc2C[N+]1(Cc1ccccn1)Cc1ccccn1 [[VVO(pic-trpH)tpa]2+]
- IC50 ([2]; ref 9 (Nilsson et al. 2009)): 1840 µM

Molecule: [O]=[V+4]12([O]C3=COC=C[C@@H]3[O]1)[O]C1=COC=C[C@H]1[O]2 [bis(3-hydroxy-4-pyronato)oxovanadium(IV)]
- IC50 ([2]; ref 2 (Sakurai et al. 2008)): 1180 µM

Molecule: CCC1=C2[O][V+4]3(=[O])([O]C4=C(CC)OC=C[C@@H]4[O]3)[O][C@H]2C=CO1 [bis(ethylmaltolato)oxovanadium(IV)]
- IC50 ([2]; ref 5 (Sakurai et al. 2010)): 632 µM

Molecule: (S)-[2-(N-salicylidene) amino-propionate] oxovanadium(IV) monohydrate [Complex V]
- decreasing blood glucose level [3]: 26%
- IC50 [4]: 810 ± 60 µM
- LD50exp [5]: 245(210–280)
- Class in AD (experimental toxicity class) [5]: 3
